# Reference: patent US20100292222A1, “CHEMICAL COMPOUNDS 751” (ASTRAZENECA AB, priority 2009, published 2010)
# Target: T1, Androgen Receptor (AR) (Homo sapiens, UniProt P10275, T878A)
# T1 construct: cell based immuno-fluorescence assay using the LNCaP prostate epithelial cell line; host or cells: LNCaP clone FGC prostate carcinoma cells
# T1 sequence (P10275 1-920 T878A): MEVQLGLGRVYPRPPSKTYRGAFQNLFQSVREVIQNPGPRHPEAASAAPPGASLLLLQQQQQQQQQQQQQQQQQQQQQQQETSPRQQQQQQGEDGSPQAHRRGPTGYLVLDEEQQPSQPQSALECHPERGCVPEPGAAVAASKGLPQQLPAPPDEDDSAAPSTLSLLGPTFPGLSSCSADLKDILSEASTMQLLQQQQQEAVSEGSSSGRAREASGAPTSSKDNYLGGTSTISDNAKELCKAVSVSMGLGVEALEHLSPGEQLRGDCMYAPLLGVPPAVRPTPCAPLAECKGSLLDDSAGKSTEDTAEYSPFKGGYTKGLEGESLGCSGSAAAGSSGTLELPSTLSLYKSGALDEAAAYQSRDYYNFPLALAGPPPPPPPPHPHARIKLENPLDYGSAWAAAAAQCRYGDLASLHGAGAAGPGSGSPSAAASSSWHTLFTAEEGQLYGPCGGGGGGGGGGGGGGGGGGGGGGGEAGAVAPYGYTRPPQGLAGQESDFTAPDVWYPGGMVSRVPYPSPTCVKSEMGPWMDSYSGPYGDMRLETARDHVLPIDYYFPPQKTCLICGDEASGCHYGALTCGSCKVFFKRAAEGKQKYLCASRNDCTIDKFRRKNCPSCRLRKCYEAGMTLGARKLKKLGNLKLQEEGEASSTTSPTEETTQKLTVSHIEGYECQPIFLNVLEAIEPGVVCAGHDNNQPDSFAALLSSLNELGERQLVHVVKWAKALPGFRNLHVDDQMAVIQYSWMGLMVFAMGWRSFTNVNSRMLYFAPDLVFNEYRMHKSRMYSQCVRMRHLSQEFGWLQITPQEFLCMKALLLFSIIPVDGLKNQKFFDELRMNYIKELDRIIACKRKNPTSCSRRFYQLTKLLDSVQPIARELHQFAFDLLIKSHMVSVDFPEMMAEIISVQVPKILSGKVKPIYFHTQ
# Experiment: LNCaP Androgen Receptor Down-Regulation Cell Assay
# Type: cell-based
# Conditions: LNCaP prostate carcinoma cell line; 20-22 hours incubation; immunofluorescence; 50% reduction of the AR signal
# Experimental: The ability of compounds to reduce Androgen Receptor (AR) numbers was assessed in a cell based immuno-fluorescence assay using the LNCaP prostate epithelial cell line.
# This immunofluorescence end point assay measures the ability of a test compound to down-regulate and reduce measured levels of the AR in the LNCaP prostate carcinoma cell line (LNCaP clone FGC (CRL-1740) obtained from the American Type Culture Collection (ATCC)).
# LNCaP cells were cultured in Growth Medium (phenol red free Roswell Park Memorial Institute (RPMI) 1640 (Invitrogen Code no. 11835-063) containing 2 mM L-Glutamine (Invitrogen Code no. 25030-024) and 1% (v/v) Penicillin/Streptomycin (10000 units/ml Penicillin and 10000 μg/ml of Streptomycin utilising penicillin G (sodium salt) and streptomycin sulphate: prepared in normal saline, Invitrogen Code no. 15140122) and 10% (v/v) foetal bovine serum (FBS)) in a 5% CO2 air incubator at 37° C. Cells for assay were harvested from T175 stock flasks by washing once in PBS (phosphate buffered saline, pH 7.4) (Invitrogen Code no. 14190-094) and harvested using 5 mls of 1× Trypsin/ethylaminediaminetetraacetic acid (EDTA) (10× Trypsin-EDTA, 5.0 g/L Trypsin, 2.0 g/L of EDTA•4Na and 8.5 g/L of NaCl, without Phenol Red, Invitrogen Code no. 15400-054) diluted in PBS solution. A 5 ml volume of Growth Medium was added to each flask (as above except that 5% (v/v) charcoal stripped FBS (HyClone Code no. SH30068.03) was included instead of 10% (v/v) FBS). Cells were syringed at least twice using a sterile 18G×1.5″ (1.2×40 mm) broad gauge needle and cell density was measured using a haemocytometer. Cells were further diluted in Growth Medium plus 5% (v/v) charcoal stripped FBS and seeded at a density of 6.5×10^3 cells per well (in 90 ul) into transparent, black, tissue culture treated 96 well plates (Packard, No. 6005182).
# Test data reported herein was generated using two different compounds preparation and dosing methods. In method (1) a 10 mM compound stock solution in 100% (v/v) DMSO was serially diluted in 4-fold steps in 100% (v/v) DMSO using a Thermo Scientific Matrix SerialMate. The diluted compounds were then further diluted 1 in 30 in assay media using a Thermo Scientific Matrix PlateMate and a 10 μl aliquot of this dilution was dosed to cells manually using a multi-channel pipette. In method (2) starting with a 10 mM compound stock solution, the Labcyte Echo 550 was used to generate a compound concentration response set diluted in 30 μl of assay media. The Echo 550 is a liquid handler that uses acoustic technology to perform direct microplate-to-microplate transfers of DMSO compound solutions. The system can be programmed to transfer volumes as low as […] in multiple increments between microplates and in so doing generates a serial dilution of compound which is then back-filled to normalise the DMSO is concentration across the dilution range. A 10 μl volume of diluted compound is then dosed to cells using a Thermo Scientific Matrix PlateMate.
# Plates were incubated overnight at 37° C., 5% CO2. Wells were then dosed with compound prepared by one of the 2 methods above and further incubated for 20-22 hours at 37° C., 5% CO2. Plates were fixed by the addition of 20 μl of 10% (v/v) formaldehyde solution (in PBS) to each well (final formaldehyde conc.=1.67% (v/v)) and left at room temperature for 10 mins. This fixative solution was removed and cells were washed with 250 μl of PBS/0.05% (v/v) Tween 20 (PBST) using an automated plate washer. This process was then repeated twice more.
# Immunostaining was performed at room temperature. Cells were permeabilised by the addition of 35 μl of PBS containing 0.5% Tween 20 and incubated for 1 hour at room temperature. Permeabilisation solution was removed and cells were washed with 250 μl of PBST using an automated plate washer. This process was then repeated twice more. […]
row,SMILES,IC50
1,"CN1CCN(CCOc2ccc(C3(O)CCN(c4ccc5nnc(C(F)(F)F)n5n4)CC3)cc2F)CC1=O [Example 12, 4-[2-(2-fluoro-4-{4-hydroxy-1-[3-(trifluoromethyl)[1,2,4]triazolo[4,3-b]pyridazin-6-yl]piperidin-4-yl}phenoxy)ethyl]-1-methylpiperazin-2-one]",0.67 µM
2,"COC[C@H](CN1CCN(C(C)=O)CC1)Oc1ccc(C2CCN(c3ccc4nnc(C(F)(F)F)n4n3)CC2)cc1 [Example 28, 6-(4-{4-[(1S)-2-(4-acetylpiperazin-1-yl)-1-(methoxymethyl)ethoxy]phenyl}piperidin-1-yl)-3-(trifluoromethyl)[1,2,4]triazolo[4,3-b]pyridazine]",0.4 µM
3,"O=C1CN(CCOc2ccc(C3CCN(c4ccc5nnc(C(F)(F)F)n5n4)CC3)cc2)CCN1C1CC1 [Example 6, 1-cyclopropyl-4-[2-(4-{1-[3-(trifluoromethyl)[1,2,4]-triazolo[4,3-b]pyridazin-6-yl]piperidin-4-yl}phenoxy)ethyl]piperazin-2-one]",0.51 µM
4,"CN1CCN(CCCOc2ccc(C3CCN(c4ccc5nnc(C(F)(F)F)n5n4)CC3)cc2)CC1=O [Example 9, 1-methyl-4-[3-(4-{1-[3-(trifluoromethyl)[1,2,4]triazolo[4,3-b]pyridazin-6-yl]piperidin-4-yl}phenoxy)propyl]piperazin-2-one]",0.3 µM
5,"CC(=O)N1CCN([C@H](C)COc2ccc(C3(O)CCN(c4ccc5nnc(C(F)(F)F)n5n4)CC3)cc2)CC1 (single isomer, unassigned) [Example 43, 4-{4-[2-(4-acetylpiperazin-1-yl)propoxy]phenyl}-1-[3-(trifluoromethyl)[1,2,4]triazolo[4,3-b]pyridazin-6-yl]piperidin-4-ol]",0.084 µM
6,"CN1CCN(CCCOc2ccc(C3(O)CCN(c4ccc5nnc(C(F)(F)F)n5n4)CC3)c(F)c2)CC1=O [Example 42, 4-[3-(3-fluoro-4-{4-hydroxy-1-[3-(trifluoromethyl)[1,2,4]triazolo[4,3-b]pyridazin-6-yl]piperidin-4-yl}phenoxy)propyl]-1-methylpiperazin-2-one]",0.17 µM
7,"CN1CCN(CCOc2ccc(C3CCN(c4ccc5nnc(C(F)(F)F)n5n4)CC3)cc2)C(=O)C1 [Example 8, 4-methyl-1-[2-(4-{1-[3-(trifluoromethyl)[1,2,4]triazolo[4,3-b]pyridazin-6-yl]piperidin-4-yl}phenoxy)ethyl]piperazin-2-one]",1 µM
8,"COCC(=O)N1CCN(CCOc2ccc(C3CCN(c4ccc5nnc(C(F)(F)F)n5n4)CC3)cc2)CC1 [Example 22, 6-[4-(4-{2-[4-(methoxyacetyl)piperazin-1-yl]ethoxy}phenyl)piperidin-1-yl]-3-(trifluoromethyl)[1,2,4]triazolo[4,3-b]pyridazine]",1.5 µM
9,"C[C@H](O)C(=O)N1CCN(CCOc2ccc(C3CCN(c4ccc5nnc(C(F)(F)F)n5n4)CC3)cc2)CC1 [Example 23, (2S)-1-oxo-1-{4-[2-(4-{1-[3-(trifluoromethyl)[1,2,4]triazolo[4,3-b]pyridazin-6-yl]piperidin-4-yl}phenoxy)ethyl]piperazin-1-yl}propan-2-ol]",0.9 µM
10,"CN1CCN(CCOc2ccc(C3(O)CCN(c4ccc5nnc(C(F)(F)F)n5n4)CC3)cc2)CC1=O [Example 3, 4-[2-(4-[4-hydroxy-1-[3-(trifluoromethyl)[1,2,4]-triazolo[4,3-b]pyridazin-6-yl]piperidin-4-yl]phenoxy)ethyl]-1-methylpiperazin-2-one]",0.36 µM
11,"CC(C)N1CCN(CCOc2ccc(C3CCN(c4ccc5nnc(C(F)(F)F)n5n4)CC3)cc2)CC1=O [Example 19, 1-(1-methylethyl)-4-[2-(4-{1-[3-(trifluoromethyl)[1,2,4]triazolo[4,3-b]pyridazin-6-yl]piperidin-4-yl}phenoxy)ethyl]piperazin-2-one]",0.71 µM
12,"Cc1cc(OCCN2CCN(C)C(=O)C2)ccc1C1(O)CCN(c2ccc3nnc(C(F)(F)F)n3n2)CC1 [Example 31, 4-[2-(4-{4-hydroxy-1-[3-(trifluoromethyl)[1,2,4]-triazolo[4,3-b]pyridazin-6-yl]piperidin-4-yl}-3-methylphenoxy)ethyl]-1-methylpiperazin-2-one]",0.26 µM

# These reach a lower IC50. Values come first.
row,IC50,SMILES
1,0.036 µM,"CC(=O)N1CCCN(CCOc2ccc(C3(O)CCN(c4ccc5nnc(C(F)(F)F)n5n4)CC3)c(F)c2)CC1 [Example 41, 4-{4-[2-(4-acetyl-1,4-diazepan-1-yl)ethoxy]-2-fluorophenyl}-1-[3-(trifluoromethyl)[1,2,4]triazolo[4,3-b]pyridazin-6-yl]piperidin-4-ol]"
2,0.079 µM,"CC(=O)N1CCN(CCOc2ccc(C3CCN(c4ccc5nnc(C(F)(F)F)n5n4)CC3)cc2)C[C@@H]1C [Example 33, 6-[4-(4-{2-[(3S)-4-acetyl-3-methylpiperazin-1-yl]ethoxy}phenyl)piperidin-1-yl]-3-(trifluoromethyl)[1,2,4]triazolo[4,3-b]pyridazine]"
3,0.067 µM,"CC(=O)N1CCN(CCOc2ccc(C3CCN(c4ccc5nnc(C(F)(F)F)n5n4)CC3)cc2)C[C@H]1C [Example 34, 6-[4-(4-{2-[(3R)-4-acetyl-3-methylpiperazin-1-yl]ethoxy}phenyl)piperidin-1-yl]-3-(trifluoromethyl)[1,2,4]triazolo[4,3-b]pyridazine]"
4,0.056 µM,"CN1CCN(CCOc2ccc(C3CCN(c4ccc5nnc(C(F)(F)F)n5n4)CC3)cc2)CCC1=O [Example 32, 4-methyl-1-[2-(4-{1-[3-(trifluoromethyl)[1,2,4]-triazolo[4,3-b]pyridazin-6-yl]piperidin-4-yl}phenoxy)ethyl]-1,4-diazepan-5-one]"
5,0.073 µM,"CN1CCN(CCOc2ccc(C3(O)CCN(c4ccc5nnc(C(F)(F)F)n5n4)CC3)c(F)c2)CC1=O [Example 36, 4-[2-(3-fluoro-4-[4-hydroxy-1-[3-(trifluoromethyl)[1,2,4]triazolo[4,3-b]pyridazin-6-yl]piperidin-4-yl]phenoxy)ethyl]-1-methylpiperazin-2-one]"
